What was measured:
[1] = tested on: HS-PSS; assay: relative IC50 (inflection point of fitted dose-response curve, CellTox-Green cytotoxicity, 72 h; top asymptote may be below 50%); higher = less potent
Summary of the method: (§1)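 MPNST cell lines and primary human Schwann cells were incubated 72 h at 37 °C in 384-well plates holding five 10-fold compound dilutions. CellTox-Green was added before seeding at a final 1:1000 dilution and reported fluorescence from DNA released by disrupted cells. Signals were scaled to vehicle and positive-control wells, and cultures failing plate quality control were dropped. Drug sensitivity score and relative IC50 come from four-parameter logistic fits, with IC50 censored at the top concentration.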

[2] = tested on: HSC1; assay: as above
Summary of the method: as §1

[3] = tested on: HSC2; assay: as above
Summary of the method: as §1

[4] = tested on: S1507-2; assay: as above
Summary of the method: as §1

[5] = tested on: ST8814; assay: as above
Summary of the method: as §1

[6] = tested on: STS26T; assay: as above
Summary of the method: as §1

[7] = tested on: HS-Sch-2; assay: relative IC50 (inflection point of fitted dose-response curve, CellTiter-Glo viability, 72 h; top asymptote may be below 50% inhibition); higher = less potent
Summary of the method: (§2)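 MPNST cell lines and primary human Schwann cells (750–1000 cells per well) went into 384-well plates preprinted with each compound at five concentrations in 10-fold steps. Plates were incubated 72 h at 37 °C, 5% CO2. Viability was read as CellTiter-Glo ATP luminescence, scaled between vehicle and positive-control wells, with duplicates averaged where present. Percent inhibition is at the top concentration; drug sensitivity score and relative IC50 (censored at top concentration) come from four-parameter logistic fits.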

[8] = tested on: HSC1; assay: as above
Summary of the method: as §2

[9] = tested on: HSC2; assay: as above
Summary of the method: as §2

[10] = tested on: S1507-2; assay: as above
Summary of the method: as §2

[11] = tested on: ST8814; assay: as above
Summary of the method: as §2

[12] = tested on: STS26T; assay: as above
Summary of the method: as §2

[13] = tested on: YST-1; assay: as above
Summary of the method: as §2

[14] = tested on: HS-PSS; assay: as above
Summary of the method: as §2

[15] = tested on: S462; assay: as above
Summary of the method: as §2

Row | SMILES | relative IC50 [1] | relative IC50 [2] | relative IC50 [3] | relative IC50 [4] | relative IC50 [5] | relative IC50 [6] | relative IC50 [7] | relative IC50 [8] | relative IC50 [9] | relative IC50 [10] | relative IC50 [11] | relative IC50 [12] | relative IC50 [13] | relative IC50 [14] | relative IC50 [15]
1 | Oc1ccc2c(c1)CC[C@H](c1ccccc1)[C@@H]2c1ccc(OCCN2CCCC2)cc1 [Lasofoxifene] | > 1 µM | > 1 µM | > 1 µM | > 1 µM | > 1 µM | > 1 µM | > 1 µM | > 1 µM | > 1 µM | > 1 µM | > 1 µM | > 1 µM | > 1 µM | – | –
2 | O=C(O)CCCc1ccc(N(CCCl)CCCl)cc1 [Chlorambucil] | > 10 µM | > 10 µM | > 10 µM | > 10 µM | > 10 µM | > 10 µM | > 10 µM | – | – | > 10 µM | > 10 µM | > 10 µM | – | > 10 µM | > 10 µM
3 | CCNC(=O)CCC/C=C\C[C@@H]1[C@@H](/C=C/[C@@H](O)CCc2ccccc2)[C@H](O)C[C@@H]1O [Bimatoprost] | > 5.5 µM | > 5.5 µM | > 5.5 µM | > 5.5 µM | > 5.5 µM | > 5.5 µM | > 5.5 µM | > 5.5 µM | > 5.5 µM | > 5.5 µM | > 5.5 µM | > 5.5 µM | > 5.5 µM | > 5.5 µM | –
4 | N#Cc1ccc(COC[C@H]2O[C@@H](n3c(NCc4ccc(Cl)c(Cl)c4)nc4c(N)ncnc43)[C@H](O)[C@@H]2O)cc1 | > 10 µM | > 10 µM | > 10 µM | > 10 µM | > 10 µM | – | > 10 µM | 0.784 µM | 0.261 µM | > 10 µM | > 10 µM | 1.1 µM | 1.24 µM | – | –
5 | N[C@@H](CSC(c1ccccc1)(c1ccccc1)c1ccccc1)C(=O)O [S-trityl-L-cysteine] | – | > 40 µM | > 40 µM | > 40 µM | > 40 µM | > 40 µM | – | – | > 40 µM | > 40 µM | > 40 µM | – | – | – | –
6 | CC[C@H](CO)Nc1nc(NCc2ccccc2)c2ncn(C(C)C)c2n1 [Seliciclib] | – | > 10 µM | > 10 µM | > 10 µM | > 10 µM | – | – | – | 3.99 µM | > 10 µM | > 10 µM | – | > 10 µM | 1.67 µM | 3.61 µM
7 | CC1(C)NC(=O)N(c2ccc([N+](=O)[O-])c(C(F)(F)F)c2)C1=O [Nilutamide] | > 10 µM | > 10 µM | > 10 µM | > 10 µM | > 10 µM | > 10 µM | – | – | > 10 µM | > 10 µM | > 10 µM | > 10 µM | > 10 µM | – | > 10 µM
8 | Clc1ccc(Nc2nnc(Cc3ccncc3)c3ccccc23)cc1 [Vatalanib] | > 10 µM | > 10 µM | > 10 µM | > 10 µM | > 10 µM | > 10 µM | – | > 10 µM | – | > 10 µM | > 10 µM | > 10 µM | – | – | –
